Source: patent US20200291018A1, “TAM KINASE INHIBITORS” (SYROS PHARMACEUTICALS, INC., priority 2017, published 2020)

Key:
[1] = molecular target: T1, FLT3 (Homo sapiens, UniProt P36888); assay: TR-FRET kinase activity assay, FLT3; assay type: biochemical; settings: ATP at Km, 60 minutes
T1 sequence (P36888 27-993): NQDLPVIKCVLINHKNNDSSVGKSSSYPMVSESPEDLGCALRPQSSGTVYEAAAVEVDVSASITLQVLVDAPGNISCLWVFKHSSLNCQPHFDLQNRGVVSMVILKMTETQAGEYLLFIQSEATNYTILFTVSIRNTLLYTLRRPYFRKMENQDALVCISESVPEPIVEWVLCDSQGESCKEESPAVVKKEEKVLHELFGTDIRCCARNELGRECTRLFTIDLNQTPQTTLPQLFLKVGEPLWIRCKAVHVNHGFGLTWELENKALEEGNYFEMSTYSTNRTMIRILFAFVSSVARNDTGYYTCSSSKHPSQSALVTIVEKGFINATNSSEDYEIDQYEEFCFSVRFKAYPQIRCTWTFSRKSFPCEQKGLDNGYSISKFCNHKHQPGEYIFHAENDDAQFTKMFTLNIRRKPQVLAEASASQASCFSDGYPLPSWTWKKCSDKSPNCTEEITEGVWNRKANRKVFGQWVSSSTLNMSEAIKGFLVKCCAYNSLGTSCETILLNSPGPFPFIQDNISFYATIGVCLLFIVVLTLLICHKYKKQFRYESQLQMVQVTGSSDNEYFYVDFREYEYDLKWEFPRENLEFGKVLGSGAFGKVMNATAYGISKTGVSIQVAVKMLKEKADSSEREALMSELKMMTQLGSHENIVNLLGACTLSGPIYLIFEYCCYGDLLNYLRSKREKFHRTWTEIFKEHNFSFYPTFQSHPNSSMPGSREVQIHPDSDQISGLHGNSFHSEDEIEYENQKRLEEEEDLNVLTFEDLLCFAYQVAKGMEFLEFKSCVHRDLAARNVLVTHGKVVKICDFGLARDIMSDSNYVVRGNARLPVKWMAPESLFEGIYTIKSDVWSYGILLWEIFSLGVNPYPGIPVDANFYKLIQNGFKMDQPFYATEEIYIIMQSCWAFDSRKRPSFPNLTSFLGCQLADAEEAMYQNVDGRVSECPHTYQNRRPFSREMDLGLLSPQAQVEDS
Summary of the method: (§1)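 Enzyme, fluorescent-labeled peptide substrate and compound were mixed, then ATP was added at each enzyme's Km. Buffer was 50 mM HEPES pH 7.5, 10 mM MgCl2, 1 mM EGTA, 0.01% Brij 35, 1 mM DTT at RT. After 60 min, EDTA quench and 30 min with Eu-anti-phosphotyrosine-site antibody; TR-FRET read gave IC50.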

[2] = molecular target: T2, MERTK (Homo sapiens, UniProt Q12866); assay: TR-FRET kinase activity assay, MERTK; assay type: biochemical; settings: for IC50: TR-FRET activity assay, ATP at Km, 60 minutes, read-out: Mer IC50; for Mer/Flt3 ratio (FLT3 IC50/Mer IC50): ratio calculated as FLT3 IC50/Mer IC50
T2 sequence (Q12866 21-999): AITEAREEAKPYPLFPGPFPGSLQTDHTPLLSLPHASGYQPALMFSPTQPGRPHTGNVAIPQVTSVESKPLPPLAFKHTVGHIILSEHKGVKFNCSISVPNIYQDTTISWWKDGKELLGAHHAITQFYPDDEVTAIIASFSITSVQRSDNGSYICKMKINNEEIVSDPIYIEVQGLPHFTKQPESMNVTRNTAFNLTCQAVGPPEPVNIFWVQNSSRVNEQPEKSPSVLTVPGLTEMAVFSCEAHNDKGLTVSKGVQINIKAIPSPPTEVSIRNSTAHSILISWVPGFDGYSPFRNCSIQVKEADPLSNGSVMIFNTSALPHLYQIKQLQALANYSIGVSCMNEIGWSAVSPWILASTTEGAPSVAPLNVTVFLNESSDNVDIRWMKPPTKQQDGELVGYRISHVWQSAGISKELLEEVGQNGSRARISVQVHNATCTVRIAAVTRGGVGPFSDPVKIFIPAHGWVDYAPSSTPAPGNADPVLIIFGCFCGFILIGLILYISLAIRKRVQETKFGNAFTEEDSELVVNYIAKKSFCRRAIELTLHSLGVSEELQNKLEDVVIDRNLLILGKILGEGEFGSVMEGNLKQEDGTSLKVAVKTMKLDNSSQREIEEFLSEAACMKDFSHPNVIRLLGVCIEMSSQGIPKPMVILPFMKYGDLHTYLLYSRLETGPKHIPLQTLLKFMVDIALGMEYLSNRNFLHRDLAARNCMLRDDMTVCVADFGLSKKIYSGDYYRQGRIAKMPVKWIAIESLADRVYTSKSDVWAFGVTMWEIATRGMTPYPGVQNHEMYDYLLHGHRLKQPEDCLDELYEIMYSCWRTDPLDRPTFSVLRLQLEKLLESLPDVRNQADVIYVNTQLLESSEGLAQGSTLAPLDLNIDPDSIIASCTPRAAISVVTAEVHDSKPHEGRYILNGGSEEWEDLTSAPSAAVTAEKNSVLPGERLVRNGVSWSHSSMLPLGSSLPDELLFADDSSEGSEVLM
Summary of the method: as §1

| SMILES | IC50 [1] [nM] | IC50 [2] [nM] | Mer/Flt3 ratio (FLT3 IC50/Mer IC50) [2] |
| --- | --- | --- | --- |
| CCCC(C)Nc1ncc2c(O[C@@H]3C[C@H]4CC[C@@H](C3)O4)ncc([C@H]3CC[C@H](O)CC3)c2n1 (stereo partly drawn) [Compound 174] | 1000 to 10000 | ≤ 100 | ++ (a ratio of between 10 and 100) |
| CCCC(C)Nc1ncc2c(O[C@H]3C[C@H]4CC[C@@H](C3)O4)ncc([C@H]3CC[C@H](O)CC3)c2n1 (stereo partly drawn) [Compound 175] | 100 to 1000 | ≤ 100 | ++ (a ratio of between 10 and 100) |
| CCCC(C)Nc1ncc2c(O[C@H]3C[C@@H](O)C3)ncc([C@H]3CC[C@H](O)CC3)c2n1 (stereo partly drawn) [Compound 176] | 100 to 1000 | ≤ 100 | +++ (a ratio of >100) |
| CCCC(C)Nc1ncc2c(=O)n(CCN3CCOCC3)cc([C@H]3CC[C@H](O)CC3)c2n1 (stereo partly drawn) [Compound 177] | 1000 to 10000 | ≤ 100 | +++ (a ratio of >100) |
| CC(C)C(C)Nc1ncc2c(OC3CCNCC3)ncc([C@H]3CC[C@H](O)CC3)c2n1 (stereo partly drawn) [Compound 178] | 1000 to 10000 | ≤ 100 | +++ (a ratio of >100) |
| CCCC(C)Nc1ncc2c(N(C)C3CCNCC3)ncc([C@H]3CC[C@H](O)CC3)c2n1 (stereo partly drawn) [Compound 179] | 1000 to 10000 | ≤ 100 | ++ (a ratio of between 10 and 100) |
| CCCC(C)Nc1ncc2c(N3CCC[C@H](N(C)C)C3)ncc([C@H]3CC[C@H](O)CC3)c2n1 (stereo partly drawn) [Compound 180] | 1000 to 10000 | ≤ 100 | +++ (a ratio of >100) |
| CCCC(C)Nc1ncc2c(N3CC(N(C)C)C3)ncc([C@H]3CC[C@H](O)CC3)c2n1 (stereo partly drawn) [Compound 181] | 1000 to 10000 | ≤ 100 | ++ (a ratio of between 10 and 100) |
| CCCC(C)Nc1ncc2c(OCCN3CCOCC3)ncc([C@H]3CC[C@H](O)CC3)c2n1 (stereo partly drawn) [Compound 182] | 100 to 1000 | ≤ 100 | ++ (a ratio of between 10 and 100) |
| O[C@H]1CC[C@H](c2cnc(OC3CCNCC3)c3cnc(NC4CCCCC4)nc32)CC1 [Compound 183] | 100 to 1000 | ≤ 100 | ++ (a ratio of between 10 and 100) |
| CCCC(C)Nc1ncc2c(OC3CCOCC3)ncc([C@H]3CC[C@@H](N(C)C)CC3)c2n1 (stereo partly drawn) [Compound 184] | 1000 to 10000 | ≤ 100 | ++ (a ratio of between 10 and 100) |
| CCCC(C)Nc1ncc2c(OC3CCOCC3)ncc([C@H]3CC[C@H](N(C)C)CC3)c2n1 (stereo partly drawn) [Compound 185] | 100 to 1000 | ≤ 100 | ++ (a ratio of between 10 and 100) |
| CCCC(C)Nc1ncc2c(=O)n(C3CCN(C(C)C)CC3)cc([C@H]3CC[C@H](O)CC3)c2n1 (stereo partly drawn) [Compound 186] | 1000 to 10000 | ≤ 100 | +++ (a ratio of >100) |
| CCCC(C)Nc1ncc2c(O[C@H]3C[C@H](O)C3)ncc([C@H]3CC[C@H](O)CC3)c2n1 (stereo partly drawn) [Compound 187] | 100 to 1000 | ≤ 100 | ++ (a ratio of between 10 and 100) |
| CCCC(C)Nc1ncc2c(N3CCC[C@@H](N(C)C)C3)ncc([C@H]3CC[C@H](O)CC3)c2n1 (stereo partly drawn) [Compound 188] | 1000 to 10000 | ≤ 100 | +++ (a ratio of >100) |
| C[C@H](Nc1ncc2c(OC3CCNCC3)ncc([C@H]3CC[C@H](O)CC3)c2n1)c1ccccc1 [Compound 189] | 1000 to 10000 | ≤ 100 | ++ (a ratio of between 10 and 100) |
| CCC[C@H](C)Nc1ncc2c(OC3CCN(C)CC3)ncc([C@H]3CC[C@H](O)CC3)c2n1 [Compound 190] | 1000 to 10000 | ≤ 100 | +++ (a ratio of >100) |
| CCCC(C)Nc1ncc2c(OCCN(C)C)ncc([C@H]3CC[C@H](O)CC3)c2n1 (stereo partly drawn) [Compound 191] | 1000 to 10000 | ≤ 100 | +++ (a ratio of >100) |
| CCCC(C)Nc1ncc2c(=O)n(C3CCN(C(=O)CN(C)C)CC3)cc([C@H]3CC[C@H](O)CC3)c2n1 (stereo partly drawn) [Compound 192] | 1000 to 10000 | ≤ 100 | +++ (a ratio of >100) |
| CCCC(C)Nc1ncc2c(=O)n(CC3CCN(C)CC3)cc([C@H]3CC[C@H](O)CC3)c2n1 (stereo partly drawn) [Compound 193] | 1000 to 10000 | ≤ 100 | +++ (a ratio of >100) |
| C[C@@H](CC(F)(F)F)Nc1ncc2c(O[C@H]3C[C@](C)(O)C3)ncc([C@H]3CC[C@H](O)CC3)c2n1 [Compound 430] | 100 to 1000 | ≤ 100 | +++ (a ratio of >100) |
| COC[C@H](C)Nc1ncc2c(O[C@H]3C[C@@H](O)C3(C)C)ncc([C@H]3CC[C@H](O)CC3)c2n1 [Compound 431] | 1000 to 10000 | ≤ 100 | +++ (a ratio of >100) |
| COCCN1[C@@H]2CC[C@H]1C[C@H](Oc1ncc([C@H]3CC[C@H](O)CC3)c3nc(N[C@@H](C)CC(F)(F)F)ncc13)C2 [Compound 432] | 100 to 1000 | ≤ 100 | +++ (a ratio of >100) |
| CC(=O)N[C@H]1C[C@@H](Oc2ncc([C@H]3CC[C@H](O)CC3)c3nc(N[C@@H](C)CC(F)(F)F)ncc23)C1 [Compound 433] | 100 to 1000 | ≤ 100 | +++ (a ratio of >100) |
| CO[C@H]1C[C@@H](Oc2ncc([C@H]3CC[C@H](O)CC3)c3nc(N[C@@H](C)CC(F)(F)F)ncc23)C1 [Compound 434] | 100 to 1000 | ≤ 100 | +++ (a ratio of >100) |
